From ChEMBL document CHEMBL4725402, “Discovery of thiapyran-pyrimidine derivatives as potential EGFR inhibitors” (Bioorg Med Chem, 2020)

Experiments:
[1] = target: Hepatocyte growth factor receptor (Homo sapiens) (UniProt P08581); assay: Inhibition of C-MET (unknown origin) at 1 uM relative to control
HeLa = assay: Antiproliferation activity against human HeLa cells assessed as reduction in cell viability measured after 72 hrs by MTT assay; type: functional, cell-based
[2] = target: Serine/threonine-protein kinase mTOR (Homo sapiens) (UniProt P42345); assay: Inhibition of mTOR (unknown origin) at 1 uM relative to control
MCF7 = assay: Antiproliferation activity against human MCF7 cells assessed as reduction in cell viability measured after 72 hrs by MTT assay; type: functional, cell-based; settings: MCF7, 72 h
L02 = assay: Cytotoxicity against human L02 cells assessed as reduction in cell viability measured after 72 hrs by MTT assay; type: cell-based; settings: L02, 72 h
[3] = Selectivity index, ratio of IC50 for human L02 cells to IC50 for human A549 cells assessed as reduction in cell viability measured after 72 hrs by MTT assay; type: toxicity; settings: L02 cells versus A549 cells, read-out: Ratio IC50
[4] = target: Epidermal growth factor receptor (Homo sapiens, UniProt P00533, L858R/T790M); assay: Inhibition of EGFR T790M/L858R mutant (unknown origin) using FAM-labelled peptide as substrate incubated for 10 mins in presence of ATP by Kinase Glo luminescence assay
[5] = target: Epidermal growth factor receptor (Homo sapiens, UniProt P00533, T790M); assay: Inhibition of EGFR T790M mutant (unknown origin) using FAM-labelled peptide as substrate incubated for 10 mins fin presence of ATP by Kinase Glo luminescence assay
Sequence of Epidermal growth factor receptor (Homo sapiens, UniProt P00533, T790M) (P00533 25-1210 T790M limits assumed): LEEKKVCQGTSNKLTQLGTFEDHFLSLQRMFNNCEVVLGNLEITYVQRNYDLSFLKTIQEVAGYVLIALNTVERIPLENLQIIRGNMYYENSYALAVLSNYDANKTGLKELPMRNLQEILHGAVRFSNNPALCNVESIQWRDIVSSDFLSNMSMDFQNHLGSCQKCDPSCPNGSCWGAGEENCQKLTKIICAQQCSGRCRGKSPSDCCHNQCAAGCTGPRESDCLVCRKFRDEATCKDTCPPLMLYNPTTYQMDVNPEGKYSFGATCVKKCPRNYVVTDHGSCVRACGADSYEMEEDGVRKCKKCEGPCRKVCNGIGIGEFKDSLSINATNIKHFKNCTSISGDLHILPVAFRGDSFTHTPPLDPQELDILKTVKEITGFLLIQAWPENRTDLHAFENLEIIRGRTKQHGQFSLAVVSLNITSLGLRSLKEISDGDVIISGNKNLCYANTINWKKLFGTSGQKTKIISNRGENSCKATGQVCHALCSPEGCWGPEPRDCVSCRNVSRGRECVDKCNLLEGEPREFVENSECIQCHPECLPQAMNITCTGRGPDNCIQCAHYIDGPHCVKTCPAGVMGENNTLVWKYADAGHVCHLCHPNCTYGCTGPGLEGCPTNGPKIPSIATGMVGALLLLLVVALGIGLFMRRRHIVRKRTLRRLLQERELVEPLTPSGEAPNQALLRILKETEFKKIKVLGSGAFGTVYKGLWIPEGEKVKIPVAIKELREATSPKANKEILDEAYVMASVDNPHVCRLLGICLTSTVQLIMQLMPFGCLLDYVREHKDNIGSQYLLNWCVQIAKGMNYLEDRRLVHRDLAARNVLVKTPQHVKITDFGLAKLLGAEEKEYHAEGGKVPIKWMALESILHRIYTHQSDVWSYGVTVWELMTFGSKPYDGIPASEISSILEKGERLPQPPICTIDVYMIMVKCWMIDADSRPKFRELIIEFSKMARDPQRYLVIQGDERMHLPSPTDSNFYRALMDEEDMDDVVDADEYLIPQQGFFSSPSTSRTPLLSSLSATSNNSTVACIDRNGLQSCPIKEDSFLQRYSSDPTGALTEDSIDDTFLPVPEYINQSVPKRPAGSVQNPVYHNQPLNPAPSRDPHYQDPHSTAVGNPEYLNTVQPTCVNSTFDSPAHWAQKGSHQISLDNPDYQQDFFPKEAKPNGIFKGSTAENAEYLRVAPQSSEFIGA

Homo sapiens = species: Homo sapiens; assay: Inhibition of PI3K (unknown origin) at 1 uM relative to control
[6] = target: Epidermal growth factor receptor (Homo sapiens, UniProt P00533); assay: Inhibition of wild type EGFR (unknown origin) using FAM-labelled peptide as substrate incubated for 10 mins in presence of ATP by Kinase Glo luminescence assay
Sequence of Epidermal growth factor receptor (Homo sapiens, UniProt P00533) (P00533 whole entry): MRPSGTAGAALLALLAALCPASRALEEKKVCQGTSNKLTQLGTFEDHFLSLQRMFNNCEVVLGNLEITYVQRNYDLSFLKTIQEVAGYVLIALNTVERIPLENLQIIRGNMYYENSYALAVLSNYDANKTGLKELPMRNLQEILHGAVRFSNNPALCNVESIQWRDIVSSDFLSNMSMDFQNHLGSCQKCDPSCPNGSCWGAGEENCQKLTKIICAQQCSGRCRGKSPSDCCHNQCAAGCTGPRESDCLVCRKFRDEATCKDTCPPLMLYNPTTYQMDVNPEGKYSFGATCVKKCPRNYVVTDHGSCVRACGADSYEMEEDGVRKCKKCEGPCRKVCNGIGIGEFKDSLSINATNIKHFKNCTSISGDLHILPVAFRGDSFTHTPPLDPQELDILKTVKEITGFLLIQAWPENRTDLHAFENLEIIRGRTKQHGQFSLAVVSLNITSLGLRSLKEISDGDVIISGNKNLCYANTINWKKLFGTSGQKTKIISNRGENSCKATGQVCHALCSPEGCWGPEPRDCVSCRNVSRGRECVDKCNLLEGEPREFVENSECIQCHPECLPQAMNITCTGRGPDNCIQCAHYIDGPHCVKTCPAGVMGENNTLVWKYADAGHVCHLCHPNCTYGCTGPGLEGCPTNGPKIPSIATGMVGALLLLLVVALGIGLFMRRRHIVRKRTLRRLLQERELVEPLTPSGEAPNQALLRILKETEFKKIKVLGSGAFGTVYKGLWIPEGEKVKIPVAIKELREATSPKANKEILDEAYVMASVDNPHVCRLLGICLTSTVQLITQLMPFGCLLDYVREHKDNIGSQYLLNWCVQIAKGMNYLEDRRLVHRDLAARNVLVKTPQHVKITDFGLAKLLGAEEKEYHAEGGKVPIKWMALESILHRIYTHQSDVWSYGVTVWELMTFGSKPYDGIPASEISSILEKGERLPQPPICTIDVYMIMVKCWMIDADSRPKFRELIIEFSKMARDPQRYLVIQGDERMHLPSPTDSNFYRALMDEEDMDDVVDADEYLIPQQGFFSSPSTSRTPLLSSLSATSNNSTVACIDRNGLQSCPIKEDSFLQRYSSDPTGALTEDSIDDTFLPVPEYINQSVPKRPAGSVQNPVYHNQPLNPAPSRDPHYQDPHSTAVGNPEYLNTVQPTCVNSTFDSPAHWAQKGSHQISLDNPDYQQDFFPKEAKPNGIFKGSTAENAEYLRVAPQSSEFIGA

A549 = assay: Antiproliferation activity against human A549 cells assessed as reduction in cell viability measured after 72 hrs by MTT assay; type: functional, cell-based; settings: A549, 72 h
NCI-H1975 = assay: Antiproliferation activity against human NCI-H1975 cells harboring EGFR T790M/L858R mutation assessed as reduction in cell viability measured after 72 hrs by MTT assay; type: functional, cell-based; settings: NCI-H1975, 72 h
[7] = target: Vascular endothelial growth factor receptor 2 (Homo sapiens) (UniProt P35968); assay: Inhibition of KDR (unknown origin) at 1 uM relative to control
Sequence of Vascular endothelial growth factor receptor 2 (Homo sapiens) (P35968 whole entry): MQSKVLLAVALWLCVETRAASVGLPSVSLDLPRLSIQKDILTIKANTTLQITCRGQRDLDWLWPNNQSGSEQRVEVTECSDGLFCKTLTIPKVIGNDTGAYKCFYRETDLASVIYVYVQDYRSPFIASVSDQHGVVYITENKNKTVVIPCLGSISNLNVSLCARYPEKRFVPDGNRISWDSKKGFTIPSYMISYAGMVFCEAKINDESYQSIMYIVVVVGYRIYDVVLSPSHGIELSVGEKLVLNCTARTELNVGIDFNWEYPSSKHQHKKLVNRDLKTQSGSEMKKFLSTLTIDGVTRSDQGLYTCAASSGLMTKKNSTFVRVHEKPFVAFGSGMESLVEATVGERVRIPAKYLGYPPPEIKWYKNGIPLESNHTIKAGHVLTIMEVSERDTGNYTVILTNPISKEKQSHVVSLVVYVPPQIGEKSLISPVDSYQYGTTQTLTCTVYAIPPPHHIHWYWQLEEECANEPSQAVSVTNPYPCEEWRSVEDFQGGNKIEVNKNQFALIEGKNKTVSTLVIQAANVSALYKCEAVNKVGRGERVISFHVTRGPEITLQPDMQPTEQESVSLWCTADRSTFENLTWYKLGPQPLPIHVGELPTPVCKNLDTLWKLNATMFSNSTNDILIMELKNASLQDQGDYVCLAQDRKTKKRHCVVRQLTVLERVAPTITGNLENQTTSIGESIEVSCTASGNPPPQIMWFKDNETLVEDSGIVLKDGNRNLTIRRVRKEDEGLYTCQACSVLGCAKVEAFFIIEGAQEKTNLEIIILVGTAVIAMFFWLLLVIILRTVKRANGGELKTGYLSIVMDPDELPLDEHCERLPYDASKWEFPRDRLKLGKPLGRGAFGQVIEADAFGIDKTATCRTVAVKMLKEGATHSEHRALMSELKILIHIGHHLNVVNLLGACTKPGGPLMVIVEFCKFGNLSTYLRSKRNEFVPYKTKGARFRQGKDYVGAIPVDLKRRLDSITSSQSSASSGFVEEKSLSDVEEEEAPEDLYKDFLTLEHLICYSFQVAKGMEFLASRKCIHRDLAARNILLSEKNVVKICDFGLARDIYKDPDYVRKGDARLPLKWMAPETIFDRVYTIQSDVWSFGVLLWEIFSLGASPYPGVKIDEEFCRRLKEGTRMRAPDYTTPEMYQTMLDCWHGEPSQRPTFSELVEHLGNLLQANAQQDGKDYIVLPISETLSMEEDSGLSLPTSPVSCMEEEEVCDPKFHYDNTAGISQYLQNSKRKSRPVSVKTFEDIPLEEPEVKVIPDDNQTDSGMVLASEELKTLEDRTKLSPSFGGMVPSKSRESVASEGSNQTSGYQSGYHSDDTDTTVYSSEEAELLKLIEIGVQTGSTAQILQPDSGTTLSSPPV

Sequence of Hepatocyte growth factor receptor (Homo sapiens) (P08581 whole entry): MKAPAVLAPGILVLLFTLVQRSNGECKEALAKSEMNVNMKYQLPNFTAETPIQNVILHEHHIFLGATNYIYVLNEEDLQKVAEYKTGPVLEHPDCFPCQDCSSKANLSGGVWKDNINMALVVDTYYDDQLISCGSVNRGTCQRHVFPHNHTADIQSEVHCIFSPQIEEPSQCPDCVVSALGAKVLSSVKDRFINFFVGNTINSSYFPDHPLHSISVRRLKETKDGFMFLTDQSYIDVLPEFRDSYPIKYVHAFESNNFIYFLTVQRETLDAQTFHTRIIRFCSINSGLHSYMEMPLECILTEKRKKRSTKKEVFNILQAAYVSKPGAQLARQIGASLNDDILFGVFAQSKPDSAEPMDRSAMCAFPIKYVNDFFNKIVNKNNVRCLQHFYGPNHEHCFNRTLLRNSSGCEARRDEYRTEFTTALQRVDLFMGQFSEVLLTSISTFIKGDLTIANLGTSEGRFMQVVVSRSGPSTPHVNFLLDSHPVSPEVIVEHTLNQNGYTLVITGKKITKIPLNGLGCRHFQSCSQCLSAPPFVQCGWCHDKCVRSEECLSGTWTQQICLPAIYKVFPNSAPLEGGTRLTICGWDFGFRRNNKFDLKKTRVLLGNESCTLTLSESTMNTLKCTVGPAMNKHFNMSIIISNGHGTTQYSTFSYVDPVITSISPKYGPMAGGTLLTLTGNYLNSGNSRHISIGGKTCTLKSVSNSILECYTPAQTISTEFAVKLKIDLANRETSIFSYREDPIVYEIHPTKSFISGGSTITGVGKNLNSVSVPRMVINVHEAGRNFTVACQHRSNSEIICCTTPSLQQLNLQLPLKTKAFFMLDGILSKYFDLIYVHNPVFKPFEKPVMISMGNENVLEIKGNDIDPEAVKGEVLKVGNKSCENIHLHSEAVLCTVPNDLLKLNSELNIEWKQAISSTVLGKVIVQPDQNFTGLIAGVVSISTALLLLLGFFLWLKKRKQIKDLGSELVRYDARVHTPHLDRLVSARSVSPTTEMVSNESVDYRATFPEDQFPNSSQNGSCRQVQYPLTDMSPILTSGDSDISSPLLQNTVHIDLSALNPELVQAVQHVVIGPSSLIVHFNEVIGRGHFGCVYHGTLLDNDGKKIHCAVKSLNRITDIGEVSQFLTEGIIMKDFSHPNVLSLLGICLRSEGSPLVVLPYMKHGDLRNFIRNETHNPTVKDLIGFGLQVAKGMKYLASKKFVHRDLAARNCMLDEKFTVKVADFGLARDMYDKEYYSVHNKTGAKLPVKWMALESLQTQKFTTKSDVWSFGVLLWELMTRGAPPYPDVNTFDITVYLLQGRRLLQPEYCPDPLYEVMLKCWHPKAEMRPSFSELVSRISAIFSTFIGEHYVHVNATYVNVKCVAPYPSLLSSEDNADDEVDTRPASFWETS

SMILES	inhibition [1]	IC50 (HeLa)	inhibition [2]	IC50 (MCF7)	IC50 [4]	IC50 [5]	inhibition (Homo sapiens)	IC50 [6]	IC50 (A549)	IC50 (NCI-H1975)	inhibition [7]	IC50 (L02)	selectivity ratio at 72 h [3]
CC(C)=CC(=O)Nc1cccc(Oc2nc(Nc3ccn(C)n3)nc3c2CSCC3)c1		> 50 µM		> 50 µM					44.2 µM			> 50 µM	> 1.13
C=CC(=O)Nc1cccc(Oc2nc(Nc3ccn(C)n3)nc3c2CSCC3)c1		25.8 µM		> 50 µM					18.6 µM			> 50 µM	> 2.7
C=C(F)C(=O)Nc1cccc(Oc2nc(Nc3ccn(C)n3)nc3c2CSCC3)c1		> 50 µM		> 50 µM					> 50 µM	36.3 µM		47.8 µM	< 0.96
COc1ccc(Nc2nc3c(c(Oc4cccc(NC(=O)/C=C/C(C)C)c4)n2)CSCC3)cn1		27.8 µM		37.1 µM					24.2 µM			> 50 µM	> 2.06
C=C(C)C(=O)Nc1cccc(Oc2nc(Nc3ccn(C)n3)nc3c2CSCC3)c1		> 50 µM		> 50 µM					46.9 µM			> 50 µM	> 1.06
COc1ccc(Nc2nc3c(c(Oc4cccc(NC(=O)C=C(C)C)c4)n2)CSCC3)cn1		29.2 µM		22.2 µM					16.8 µM			> 50 µM	> 2.97
CC/C=C/C(=O)Nc1cccc(Oc2nc(Nc3ccc(OC)nc3)nc3c2CSCC3)c1		31.2 µM		31.5 µM					13.1 µM	13.2 µM		> 50 µM	> 3.81
Oc1cccc(-c2nc(N3CCOCC3)c3oc4ncccc4c3n2)c1							99.8%				2.4%		
CC/C=C/C(=O)Nc1cccc(Oc2nc(Nc3ccn(C)n3)nc3c2CSCC3)c1		> 50 µM		> 50 µM					36.8 µM			> 50 µM	> 1.36
CCC/C=C/C(=O)Nc1cccc(Oc2nc(Nc3ccn(C)n3)nc3c2CSCC3)c1		17 µM		22.6 µM		> 1000 nM		> 1000 nM	8.19 µM	13.6 µM		> 50 µM	> 6.1
C/C=C/C(=O)Nc1cccc(Oc2nc(Nc3ccn(C)n3)nc3c2CSCC3)c1		> 50 µM		40 µM					> 50 µM	35.9 µM		> 50 µM	
COc1ccc(Nc2nc3c(c(Oc4cccc(NC(=O)C=C(C)C)c4)n2)CSCC3)cc1		19.1 µM		> 50 µM					26.9 µM			> 50 µM	> 1.86
CC(C)/C=C/C(=O)Nc1cccc(Oc2nc(Nc3ccn(C)n3)nc3c2CSCC3)c1		40.1 µM		> 50 µM					33.5 µM			> 50 µM	> 1.49
CC/C=C/C(=O)Nc1cccc(Oc2nc(Nc3ccc(OC)cc3)nc3c2CSCC3)c1		27.2 µM		31.4 µM					20.1 µM	17.2 µM		> 50 µM	> 2.49
CCC/C=C/C(=O)Nc1cccc(Oc2nc(Nc3ccc(OC)cc3)nc3c2CSCC3)c1		12.8 µM		> 50 µM					11.9 µM	18.9 µM		> 50 µM	> 4.21
COc1ccc(Nc2nc3c(c(Oc4cccc(NC(=O)/C=C/C(C)C)c4)n2)CSCC3)cc1		22.9 µM		> 50 µM					25.9 µM			> 50 µM	> 1.93
CCC/C=C/C(=O)Nc1cccc(Oc2nc(Nc3ccc(OC)nc3)nc3c2CSCC3)c1		15.3 µM		26.8 µM					10.8 µM	17.9 µM		> 50 µM	> 4.62
C=CC(=O)Nc1cccc(Oc2nc(Nc3ccc(OC)nc3)nc3c2CSCC3)c1		26.2 µM		17.2 µM					14.6 µM	13.9 µM		> 50 µM	> 3.43
C=C(F)C(=O)Nc1cccc(Oc2nc(Nc3cccc(OC)c3)nc3c2CSCC3)c1		44.8 µM		> 50 µM					29.6 µM	26.1 µM		41.2 µM	1.39

Further lines, with some results ahead:

inhibition [1]	IC50 (HeLa)	inhibition [2]	IC50 (MCF7)	IC50 [4]	IC50 [5]	inhibition (Homo sapiens)	IC50 [6]	IC50 (A549)	IC50 (NCI-H1975)	inhibition [7]	SMILES	IC50 (L02)	selectivity ratio at 72 h [3]
3.6%	7.22 µM	10%	15.3 µM	> 1000 nM	> 1000 nM	62.2%	> 1000 nM	5.79 µM	10.8 µM		CCC/C=C/C(=O)Nc1cccc(Oc2nc(Nc3cccc(C#N)c3)nc3c2CSCC3)c1	> 50 µM	> 8.64
	31.8 µM		15.8 µM					10.1 µM	17.2 µM		CC/C=C/C(=O)Nc1cccc(Oc2nc(Nc3cccc(C#N)c3)nc3c2CSCC3)c1	> 50 µM	> 4.95
	22.8 µM		29.6 µM					35.9 µM			CC(C)/C=C/C(=O)Nc1cccc(Oc2nc(Nc3cccc(C#N)c3)nc3c2CSCC3)c1	> 50 µM	> 1.39
	> 50 µM		24.3 µM					22.2 µM			C/C=C/C(=O)Nc1cccc(Oc2nc(Nc3ccc(OC)cc3)nc3c2CSCC3)c1	> 50 µM	> 2.25
	13.8 µM		23.4 µM					21.1 µM	12.5 µM		C/C=C/C(=O)Nc1cccc(Oc2nc(Nc3cccc(OC)c3)nc3c2CSCC3)c1	> 50 µM	> 2.37
	19.1 µM		> 50 µM					19.8 µM	21.9 µM		COc1cccc(Nc2nc3c(c(Oc4cccc(NC(=O)C=C(C)C)c4)n2)CSCC3)c1	> 50 µM	> 2.52
	12.8 µM		21.4 µM					17.2 µM	28.1 µM		C/C=C/C(=O)Nc1cccc(Oc2nc(Nc3cccc(C#N)c3)nc3c2CSCC3)c1	> 50 µM	> 2.91
2.4%	34.9 µM		21.7 µM	> 1000 nM	> 1000 nM	44.3%	> 1000 nM	6.86 µM	4.59 µM	-0.9%	C=CC(=O)Nc1cccc(Oc2nc(Nc3cccc(C#N)c3)nc3c2CSCC3)c1	> 50 µM	> 7.29
	29.2 µM		> 50 µM					36.9 µM			CC(C)=CC(=O)Nc1cccc(Oc2nc(Nc3cccc(C#N)c3)nc3c2CSCC3)c1	> 50 µM	> 1.36
	28.9 µM		> 50 µM					10.1 µM	9.64 µM		C=CC(=O)Nc1cccc(Oc2nc(Nc3cccc(OC)c3)nc3c2CSCC3)c1	48.9 µM	
	33.8 µM		32 µM					11.8 µM	11.9 µM		CCC/C=C/C(=O)Nc1cccc(Oc2nc(Nc3cccc(OC)c3)nc3c2CSCC3)c1	> 50 µM	> 4.23
	16.5 µM		21.1 µM		> 1000 nM		> 1000 nM	8.04 µM	13.9 µM		C/C=C/C(=O)Nc1cccc(Oc2nc(Nc3ccc(OC)nc3)nc3c2CSCC3)c1	> 50 µM	> 6.22
	> 50 µM		21.8 µM					25.3 µM	25.1 µM		COc1cccc(Nc2nc3c(c(Oc4cccc(NC(=O)/C=C/C(C)C)c4)n2)CSCC3)c1	> 50 µM	> 1.98
	27.2 µM		24.2 µM					17.2 µM	10.8 µM		CC/C=C/C(=O)Nc1cccc(Oc2nc(Nc3cccc(OC)c3)nc3c2CSCC3)c1	> 50 µM	> 2.9
